Measured values published in publication PMC12399569, “Disruption of Spike Priming in Virus Entry: Tetrandrine as a Pan‐Coronavirus Inhibitor” (MedComm, 2025).

Target: T1, SARS-CoV-2 Spike (Severe acute respiratory syndrome coronavirus 2, UniProt P0DTC2)
T1 construct: gene S
Assay: SPR (Reichert4, CM5 chip, Spike immobilised)
Assay type: binding

SMILES: COc1ccc2cc1Oc1ccc(cc1)C[C@H]1c3cc(c(OC)cc3CCN1C)Oc1c(OC)c(OC)cc3c1[C@H](C2)N(C)CC3 [tetrandrine]
- Kd: ~2230 nM
